Data taken from patent US8404679B2, “Pyrrolidine derivatives as NK2 receptor antagonists” (Hoffmann-La Roche Inc., priority 2008, dated 2013).

target: T1, human NK2 receptor (Homo sapiens, UniProt P21452); assay: [3H]SR48968 competition binding assay; settings: [3H]SR48968 displacement, membranes of CHO cells stably expressing recombinant human NK2 receptor; Ki from IC50 by Cheng-Prussoff
T1 construct: purchased Perkin Elmer biosignal Inc. 6110510
T1 sequence (P21452 1-398): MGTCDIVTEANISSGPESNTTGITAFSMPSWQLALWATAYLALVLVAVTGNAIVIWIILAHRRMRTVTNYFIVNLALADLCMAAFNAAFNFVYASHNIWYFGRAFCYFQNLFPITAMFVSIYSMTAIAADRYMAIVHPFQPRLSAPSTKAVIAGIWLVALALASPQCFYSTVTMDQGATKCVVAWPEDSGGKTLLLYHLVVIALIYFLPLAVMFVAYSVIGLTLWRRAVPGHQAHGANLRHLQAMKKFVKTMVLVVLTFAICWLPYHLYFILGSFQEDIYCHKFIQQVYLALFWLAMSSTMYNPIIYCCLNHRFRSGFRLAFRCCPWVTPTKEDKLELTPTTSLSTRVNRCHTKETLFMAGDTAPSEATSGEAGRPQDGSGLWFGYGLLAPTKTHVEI
Protocol: [^3H]SR48968 Competition Binding Assay
hNK2 receptor binding experiment were performed using [^3H]SR48968 (Catalog No. TRK398, specific activity: 27.0 Ci/mmol, Amersham, GE Healthcare UK limited, Buckinghamshire, UK) and membrane isolated from CHO cells stably expressing recombinant human NK2 receptor (product No. 6110510, Perkin Elmer biosignal Inc., Shelton, Conn., USA). After thawing, the membrane homogenates were centrifuged at 48,000×g for 10 min at 4° C., the pellets were resuspended in the 50 mM Tris-HCl, 3 mM MnCl2, 4 μg/mL Chymostatin, 0.04% BSA binding buffer at pH 7.4 to a final assay concentration of 6.5 μg protein/well. For inhibition experiments, membranes were incubated with [^3H]SR48968 at a concentration equal to KD value of radioligand and 10 concentrations of the inhibitory compound (0.0003-10 μM) (in a total reaction volume of 500 μl) for 75 min at room temperature (RT). At the end of the incubation, membranes were filtered onto unitfilter (96-well white microplate with bonded GF/C filter preincubated 1 h in 0.3% polyethylenimine, Packard BioScience, Meriden, Conn.) with a Filtermate 196 harvester (Packard BioScience) and washed 4 times with ice-cold 50 mM Tris-HCl, pH 7.4 buffer. Nonspecific binding was measured in the presence of 10 μM 1-{2-[(R)-3-(3,4-dichloro-phenyl)-1-(3,4,5-trimethoxy-benzoyl)-pyrrolidin-3-yl]-ethyl}-4-phenyl-piperidine-4-carboxylic acid amide. The radioactivity on the filter was counted (5 min) on a Packard Top-count microplate scintillation counter with quenching correction after addition of 45 μl of microscint 40 (Canberra Packard S. A., Zürich, Switzerland) and shaking for 1 h. Inhibition curves were fitted according to the Hill equation: y=100/(1+(x/IC50)^nH), where nH=slope factor using Excel-fit 4 software (Microsoft). IC50 values were derived from the inhibition curve and the affinity constant (Ki) values were calculated using the Cheng-Prussoff equation Ki=IC50/(1+[L]/KD) where [L] was the concentration of radioligand and KD was its dissociation constant at the receptor, derived from the saturation isotherm.

Structure (SMILES)	Ki [nM]
CN(C(=O)c1ccc(F)c(Cl)c1)[C@@H]1CN(C(=O)N2CCN(S(C)(=O)=O)CC2)C[C@H]1c1ccc(Cl)c(Cl)c1 (racemic) [Example 32, rac-3-Chloro-N-[(3S,4R)-4-(3,4-dichloro-phenyl)-1-(4-methanesulfonyl-piperazine-1-carbonyl)-pyrrolidin-3-yl]-4-fluoro-N-methyl-benzamide]	4.57
COc1ccc(C(=O)N(C)[C@@H]2CN(C(=O)N3CCN(S(C)(=O)=O)CC3)C[C@H]2c2ccc(Cl)cc2)cc1C(F)(F)F (racemic) [Example 6, rac-N-[(3S,4R)-4-(4-Chloro-phenyl)-1-(4-methanesulfonyl-piperazine-1-carbonyl)-pyrrolidin-3-yl]-4-methoxy-N-methyl-3-trifluoromethyl-benzamide]	10.7
COc1nc(C(=O)N(C)[C@@H]2CN(C(=O)c3ccc(C#N)cc3)C[C@H]2c2ccc(Cl)c(Cl)c2)ccc1C#N (racemic) [Example 71, rac-5-Cyano-6-methoxy-pyridine-2-carboxylic acid [(3S,4R)-1-(4-cyano-benzoyl)-4-(3,4-dichloro-phenyl)-pyrrolidin-3-yl]-methyl-amide]	34.4
CN(C(=O)c1ccc2occc2c1)[C@@H]1CN(C(=O)N2CCN(S(C)(=O)=O)CC2)C[C@H]1c1ccc(Cl)c(Cl)c1 (racemic) [Example 23, rac-Benzofuran-5-carboxylic acid [(3S,4R)-4-(3,4-dichloro-phenyl)-1-(4-methanesulfonyl-piperazine-1-carbonyl)-pyrrolidin-3-yl]-methyl-amide]	10.2
COc1ccc(C(=O)N(C)[C@@H]2CN(C(=O)c3ccc(C(C)=O)cc3)C[C@H]2c2ccc(Cl)c(Cl)c2)cc1C(F)(F)F (racemic) [Example 57, rac-N-[(3S,4R)-1-(4-Acetyl-benzoyl)-4-(3,4-dichloro-phenyl)-pyrrolidin-3-yl]-4-methoxy-N-methyl-3-trifluoromethyl-benzamide]	1.55
CN(C(=O)c1ccc(C#N)cn1)[C@@H]1CN(C(=O)c2ccc(C#N)cc2)C[C@H]1c1ccc(Cl)c(Cl)c1 (racemic) [Example 70, rac-5-Cyano-pyridine-2-carboxylic acid [(3S,4R)-1-(4-cyano-benzoyl)-4-(3,4-dichloro-phenyl)-pyrrolidin-3-yl]-methyl-amide]	39.7
Cc1ccnc(C(=O)N(C)[C@@H]2CN(C(=O)c3ccc(C#N)cc3)C[C@H]2c2ccc(Cl)c(Cl)c2)c1 (racemic) [Example 63, rac-4-Methyl-pyridine-2-carboxylic acid [(3S,4R)-1-(4-cyano-benzoyl)-4-(3,4-dichloro-phenyl)-pyrrolidin-3-yl]-methyl-amide]	2.64
COc1ccc(C(=O)N(C)[C@@H]2CN(C(=O)c3cc(Cl)nc(Cl)c3)C[C@H]2c2ccc(Cl)c(Cl)c2)cc1C(F)(F)F (racemic) [Example 52, rac-N-[(3S,4R)-4-(3,4-Dichloro-phenyl)-1-(2,6-dichloro-pyridine-4-carbonyl)-pyrrolidin-3-yl]-4-methoxy-N-methyl-3-trifluoromethyl-benzamide]	3.72
CCN(C(=O)c1ccc(OC)c(C(F)(F)F)c1)[C@@H]1CN(C(=O)N2CCN(S(C)(=O)=O)CC2)C[C@H]1c1ccc(Cl)c(Cl)c1 (racemic) [Example 39, rac-N-[(3S,4R)-4-(3,4-Dichloro-phenyl)-1-(4-methanesulfonyl-piperazine-1-carbonyl)-pyrrolidin-3-yl]-N-ethyl-4-methoxy-3-trifluoromethyl-benzamide]	68.3
COc1ccc(C(=O)N(C)[C@@H]2CN(C(=O)c3ccc(C#N)cc3)C[C@H]2c2ccc(Cl)c(Cl)c2)cc1C(F)(F)F (racemic) [Example 41, rac-N-[(3S,4R)-1-(4-Cyano-benzoyl)-4-(3,4-dichloro-phenyl)-pyrrolidin-3-yl]-4-methoxy-N-methyl-3-trifluoromethyl-benzamide]	1.45

The next lines start with the values.

Ki [nM]	Structure (SMILES)
5.1	CCN1CCC(C(=O)N2C[C@H](c3ccc(Cl)cc3)[C@@H](N(C)C(=O)c3ccc(OC)c(C(F)(F)F)c3)C2)CC1 (racemic) [Example 121, N-[(3RS,4SR)-4-(4-Chloro-phenyl)-1-(1-ethyl-piperidine-4-carbonyl)-pyrrolidin-3-yl]-4-methoxy-N-methyl-3-trifluoromethyl-benzamide]
1.4	COc1ccc(C(=O)N(C)[C@H]2CN(C(=O)c3ccc(-c4nc(C)no4)cc3)C[C@@H]2c2ccc(Cl)c(Cl)c2)cc1C(F)(F)F (racemic) [Example 147, N-{(3RS,4SR)-4-(3,4-Dichloro-phenyl)-1-[4-(3-methyl-[1,2,4]oxadiazol-5-yl)-benzoyl]-pyrrolidin-3-yl}-4-methoxy-N-methyl-3-trifluoromethyl-benzamide]
17.8	COc1ccc(C(=O)N(C)[C@@H]2CN(C(=O)c3ccc(C#N)cc3)C[C@H]2c2ccc(Cl)c(Cl)c2)cn1 (racemic) [Example 86, rac-N-[(3S,4R)-1-(4-Cyano-benzoyl)-4-(3,4-dichloro-phenyl)-pyrrolidin-3-yl]-6-methoxy-N-methyl-nicotinamide]
16.2	CN(C(=O)Cc1ccc(F)cc1)[C@H]1CN(C(=O)C2CCN(C(=O)C3(C)CC3)CC2)C[C@@H]1c1ccc(Cl)c(Cl)c1 (racemic) [Example 101, N-{(3RS,4SR)-4-(3,4-Dichloro-phenyl)-1-[1-(1-methyl-cyclopropanecarbonyl)-piperidine-4-carbonyl]-pyrrolidin-3-yl}-2-(4-fluoro-phenyl)-N-methyl-acetamide]
17.8	COc1ccc(C(=O)N(C)[C@H]2CN(C(=O)c3ccc(F)cc3)C[C@@H]2c2ccc(Cl)cc2)cc1C(F)(F)F (racemic) [Example 88, N-[(3RS,4SR)-4-(4-Chloro-phenyl)-1-(4-fluoro-benzoyl)-pyrrolidin-3-yl]-4-methoxy-N-methyl-3-trifluoromethyl-benzamide]
5.8	CN(C(=O)c1ccc(C(F)(F)F)nc1)[C@@H]1CN(C(=O)c2ccc(C#N)cc2)C[C@H]1c1ccc(Cl)c(Cl)c1 (racemic) [Example 81, rac-N-[(3S,4R)-1-(4-Cyano-benzoyl)-4-(3,4-dichloro-phenyl)-pyrrolidin-3-yl]-N-methyl-6-trifluoromethyl-nicotinamide]
3.7	CN(C(=O)c1ccc(Cl)c(C(F)(F)F)c1)[C@H]1CN(C(=O)C2CCN(CC#N)CC2)C[C@@H]1c1ccc(Cl)cc1 (racemic) [Example 163, 4-Chloro-N-[(3RS,4SR)-4-(4-chloro-phenyl)-1-(1-cyanomethyl-piperidine-4-carbonyl)-pyrrolidin-3-yl]-N-methyl-3-trifluoromethyl-benzamide]
49.7	CC(C)C(C(=O)N(C)[C@H]1CN(C(=O)C2CCN(C(=O)C3(C)CC3)CC2)C[C@@H]1c1ccc(Cl)c(Cl)c1)c1ccc(F)cc1 (mixture of isomers) [Example 116, N-{(3RS,4SR)-4-(3,4-Dichloro-phenyl)-1-[1-(1-methyl-cyclopropanecarbonyl)-piperidine-4-carbonyl]-pyrrolidin-3-yl}-2-(4-fluoro-phenyl)-3,N-dimethyl-butyramide]
0.4	CN(C(=O)c1cc(C(F)(F)F)ccn1)[C@@H]1CN(C(=O)C2CCN(C(=O)C3(C)CC3)CC2)C[C@H]1c1ccc(Cl)c(Cl)c1 [Example 170, 4-Trifluoromethyl-pyridine-2-carboxylic acid {(3S,4R)-4-(3,4-dichloro-phenyl)-1-[1-(1-methyl-cyclopropanecarbonyl)-piperidine-4-carbonyl]-pyrrolidin-3-yl}-methyl-amide]
2.9	CN(C(=O)CC1CCCC1)[C@H]1CN(C(=O)C2CCN(C(=O)C3(C)CC3)CC2)C[C@@H]1c1ccc(Cl)c(Cl)c1 (racemic) [Example 113, 2-Cyclopentyl-N-{(3RS,4SR)-4-(3,4-dichloro-phenyl)-1-[1-(1-methyl-cyclopropanecarbonyl)-piperidine-4-carbonyl]-pyrrolidin-3-yl}-N-methyl-acetamide]
0.6	COc1ccc(C(=O)N(C)[C@H]2CN(C(=O)C3CCN(CCC(F)(F)F)CC3)C[C@@H]2c2ccc(Cl)c(Cl)c2)cc1C(F)(F)F (racemic) [Example 139, N-{(3RS,4SR)-4-(3,4-Dichloro-phenyl)-1-[1-(3,3,3-trifluoro-propyl)-piperidine-4-carbonyl]-pyrrolidin-3-yl}-4-methoxy-N-methyl-3-trifluoromethyl-benzamide]
